Laboratory results as given in ChEMBL document CHEMBL1201862, “PubChem BioAssay data set” (2004).
Activity calls are given as the source filed them.

How the values were obtained:
[1] = target: T1, High affinity choline transporter 1 (Homo sapiens, UniProt Q9GZV3); assay: CHT inhibitors, dose response, cell-based, 5-point CRC, membrane potential dye (AID 504840); format: functional
T1 sequence (Q9GZV3 whole entry): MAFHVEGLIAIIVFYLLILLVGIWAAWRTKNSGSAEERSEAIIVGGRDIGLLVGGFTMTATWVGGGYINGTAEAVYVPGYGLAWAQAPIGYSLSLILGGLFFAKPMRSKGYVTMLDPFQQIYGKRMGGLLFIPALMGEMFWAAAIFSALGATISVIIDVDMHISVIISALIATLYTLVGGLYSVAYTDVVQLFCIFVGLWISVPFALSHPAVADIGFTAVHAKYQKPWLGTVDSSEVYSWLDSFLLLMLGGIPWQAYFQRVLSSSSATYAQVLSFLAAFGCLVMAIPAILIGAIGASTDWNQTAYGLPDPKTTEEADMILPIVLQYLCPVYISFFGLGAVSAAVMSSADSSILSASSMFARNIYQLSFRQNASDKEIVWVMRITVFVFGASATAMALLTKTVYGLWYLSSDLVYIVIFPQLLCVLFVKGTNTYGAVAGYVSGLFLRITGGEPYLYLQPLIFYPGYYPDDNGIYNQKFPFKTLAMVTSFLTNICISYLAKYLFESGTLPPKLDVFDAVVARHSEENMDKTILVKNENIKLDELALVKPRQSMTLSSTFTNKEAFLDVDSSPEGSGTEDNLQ

[2] = tested on: HEK293; assay: NOD2 signaling inhibitors in MDP-stimulated cells, cell-based, uHTS, luminescence (AID 2001); format: functional; conditions: Homo sapiens
[3] = tested on: HEK293; assay: cells; format: functional, cell-based; conditions: Homo sapiens
[4] = tested on: HEK293; assay: cells; format: functional, cell-based; conditions: Homo sapiens; remark: listed apart in the source
[5] = tested on: HEK293; assay: NOD1 signaling inhibitors, primary screen, cell-based, luminescence, uHTS (AID 1578); format: functional; conditions: Homo sapiens
[6] = target: T2, Cysteine protease ATG4B (Homo sapiens, UniProt Q9Y4P1); format: functional;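 note: Fluorescence-based dose-response confirmation assay measuring inhibition of ATG4B activity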
T2 sequence (Q9Y4P1 whole entry): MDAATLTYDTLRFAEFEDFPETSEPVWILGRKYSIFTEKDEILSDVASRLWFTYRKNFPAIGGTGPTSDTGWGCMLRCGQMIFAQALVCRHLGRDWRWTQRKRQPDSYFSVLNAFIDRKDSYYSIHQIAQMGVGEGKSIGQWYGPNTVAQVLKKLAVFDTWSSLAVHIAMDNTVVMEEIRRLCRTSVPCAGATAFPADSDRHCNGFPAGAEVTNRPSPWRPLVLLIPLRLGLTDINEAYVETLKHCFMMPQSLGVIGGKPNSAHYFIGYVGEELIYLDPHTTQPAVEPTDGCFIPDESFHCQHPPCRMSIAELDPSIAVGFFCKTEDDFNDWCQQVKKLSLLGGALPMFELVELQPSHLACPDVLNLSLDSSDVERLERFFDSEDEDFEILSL

[7] = target: T3, SUMO-activating enzyme (Homo sapiens, UniProt Q9UBT2); assay: inhibitors of in vitro SUMOylation cascade, primary screen, biochemical, HTRF, uHTS (AID 2006); format: protein-complex assay
[8] = target: T3, SUMO-activating enzyme; assay: SUMOylation inhibitor hit validation, confirmation, SUMOylation inhibitor project, biochemical, AlphaScreen (AID 2018); format: functional
[9] = target: Phospholipase A2 (Homo sapiens, UniProt P04054); format: functional;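 note: confirmatory dose-response counterscreen on phospholipase A2, testing hits that came from an ultra-high-throughput screen for ATG4B inhibitors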
[10] = target: T4, Aminopeptidase N (Plasmodium falciparum FcB1/Columbia, UniProt O96935); assay: P. falciparum M1AAP inhibitors, biochemical, fluorogenic H-Leu-NHMec substrate, 1536-well (AID 1445); design: species or system Plasmodium falciparum 3D7, 3D7
T4 sequence (O96935 whole entry): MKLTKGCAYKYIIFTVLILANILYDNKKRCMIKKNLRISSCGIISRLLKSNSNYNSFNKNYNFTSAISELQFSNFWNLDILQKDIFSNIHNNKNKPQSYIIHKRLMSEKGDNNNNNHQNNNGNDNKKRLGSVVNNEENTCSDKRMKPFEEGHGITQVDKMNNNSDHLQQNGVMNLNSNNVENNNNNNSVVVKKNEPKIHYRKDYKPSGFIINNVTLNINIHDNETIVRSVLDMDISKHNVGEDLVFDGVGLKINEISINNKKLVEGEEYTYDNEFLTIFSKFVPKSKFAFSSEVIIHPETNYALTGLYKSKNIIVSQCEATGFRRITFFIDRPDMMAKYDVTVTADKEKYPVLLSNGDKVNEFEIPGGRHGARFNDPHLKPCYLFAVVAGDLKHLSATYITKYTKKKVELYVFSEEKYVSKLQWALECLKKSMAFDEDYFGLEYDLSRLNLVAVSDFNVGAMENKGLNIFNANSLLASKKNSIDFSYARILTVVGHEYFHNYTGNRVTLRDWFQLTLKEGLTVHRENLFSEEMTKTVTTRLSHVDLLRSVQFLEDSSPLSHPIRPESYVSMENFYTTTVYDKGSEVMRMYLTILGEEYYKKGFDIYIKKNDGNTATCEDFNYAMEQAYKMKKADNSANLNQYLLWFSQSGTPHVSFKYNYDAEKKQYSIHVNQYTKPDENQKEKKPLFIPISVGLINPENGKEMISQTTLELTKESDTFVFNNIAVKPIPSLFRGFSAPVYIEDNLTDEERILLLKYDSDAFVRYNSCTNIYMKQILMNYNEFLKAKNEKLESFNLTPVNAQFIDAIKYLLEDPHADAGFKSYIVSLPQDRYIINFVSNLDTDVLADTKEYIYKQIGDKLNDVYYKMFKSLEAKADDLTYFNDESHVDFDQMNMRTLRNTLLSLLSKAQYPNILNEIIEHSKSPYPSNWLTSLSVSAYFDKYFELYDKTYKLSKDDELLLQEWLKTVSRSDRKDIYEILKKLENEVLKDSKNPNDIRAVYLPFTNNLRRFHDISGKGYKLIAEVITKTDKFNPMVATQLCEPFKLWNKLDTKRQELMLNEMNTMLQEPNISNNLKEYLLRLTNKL

[11] = THP-1 cell cytotoxicity, dose response, cytotoxicity control for non-replicating M. tuberculosis project (AID 489025); format: functional
[12] = tested on: H4; assay: Luminescence Cell-Based Dose Response HTS to Identify Activators of 5'UTR Stem-Loop Driven Prion Protein mRNA Translation in H4 Neuroglioblastoma Cells. [Related pubchem assays: 1829 (Project Summary), 1814 (Primary HTS)]; format: functional; conditions: Homo sapiens
[13] = cells; format: functional
[14] = Vero E6 cell cytotoxicity, dose response, cytotoxicity control for non-replicating M. tuberculosis project, secondary assay (AID 492998); format: functional, VeroE6; conditions: Vero C1008
[15] = tested on: Vero; assay: cells; format: functional; conditions: Chlorocebus sabaeus
[16] = Luminescence Cell-Based Dose Confirmation HTS to Identify Activators of 5'UTR Stem-Loop Driven Alpha-Synuclein mRNA Translation in H4 Neuroglioblastoma Cells. [Related pubchem assays: 1829 (Project Summary), 1814 (Primary HTS)]; format: functional
[17] = HepG2 cell cytotoxicity, dose response, cytotoxicity control for non-replicating M. tuberculosis project (AID 489018); format: functional; conditions: Mycobacterium tuberculosis
[18] = Luminescence Cell-Based Dose Response HTS to Identify Activators of Luciferase Translation or Activity in H4 […] Cells. [Related pubchem assays: 1829 (Project Summary), 1814 (Primary HTS)]; format: functional
[19] = C. albicans growth with fluconazole, confirmation, fluorescence, retest (AID 2467); format: functional, cell-based
[20] = NIH-3T3 fibroblast cytotoxicity, dose response, cytotoxicity control, cell-based, fluorescence, Alamar Blue, secondary assay (AID 2327); format: functional;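 note: NIH-3T3 mouse fibroblasts cultured with fluconazole at 8 µg/mL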
[21] = target: T5, Carboxy-terminal domain RNA polymerase II polypeptide A small phosphatase 1 (Homo sapiens, UniProt Q9GZU7); assay: inhibitors of CTDSP1, concentration-response testing, biochemical assay, absorbance-based, actives from ultra-high-throughput screening (AID 540297); format: functional
T5 sequence (Q9GZU7 whole entry): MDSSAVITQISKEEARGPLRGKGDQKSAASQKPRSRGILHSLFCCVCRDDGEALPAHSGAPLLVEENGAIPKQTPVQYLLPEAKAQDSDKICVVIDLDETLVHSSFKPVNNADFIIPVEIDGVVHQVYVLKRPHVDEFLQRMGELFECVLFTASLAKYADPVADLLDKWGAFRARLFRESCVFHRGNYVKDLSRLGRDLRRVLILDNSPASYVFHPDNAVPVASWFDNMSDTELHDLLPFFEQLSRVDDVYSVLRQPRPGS

[22] = target: 26S proteasome non-ATPase regulatory subunit 14 (Homo sapiens, UniProt O00487); assay: inhibition of proteasome subunit RPN11 – biochemical, fluorescence polarization, uHTS hits, confirmation (AID 602368); format: functional
[23] = target: Prothrombin (Bos taurus, UniProt P00735); assay: thrombin inhibition, dose response, biochemical, fluorescence polarization, uHTS hits (AID 602369); format: functional
[24] = target: 72 kDa type IV collagenase (Homo sapiens, UniProt P08253); assay: Dose Response validation of uHTS RPN11 inhibitor hits using a MMP-2 Fluorescence assay.; format: functional
[25] = tested on: Streptococcus; assay: Group A Streptococcus viability loss, dose response, counter-screen for streptokinase expression inhibitor project, luminescence, BacTiterGlo (AID 1915); format: functional, organism-based;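 note: potency for reduction of bacterial viability or growth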
[26] = tested on: Streptococcus sp. 'group A'; assay: growth inhibition of control SK(-) GAS strain, dose response, counter-screen for streptokinase expression inhibitor project, luminescence, kanamycin, BacTiterGlo, confirmation (AID 1900); format: functional, organism-based
[27] = target: T6, Microphthalmia-associated transcription factor (Homo sapiens, UniProt O75030); assay: TRPM1 promoter luciferase signal decrease, dose response, MITF inhibitor project, cell-based, SK-MEL-5, cherry-picked, set 3 (AID 493073); format: functional
T6 sequence (O75030 whole entry): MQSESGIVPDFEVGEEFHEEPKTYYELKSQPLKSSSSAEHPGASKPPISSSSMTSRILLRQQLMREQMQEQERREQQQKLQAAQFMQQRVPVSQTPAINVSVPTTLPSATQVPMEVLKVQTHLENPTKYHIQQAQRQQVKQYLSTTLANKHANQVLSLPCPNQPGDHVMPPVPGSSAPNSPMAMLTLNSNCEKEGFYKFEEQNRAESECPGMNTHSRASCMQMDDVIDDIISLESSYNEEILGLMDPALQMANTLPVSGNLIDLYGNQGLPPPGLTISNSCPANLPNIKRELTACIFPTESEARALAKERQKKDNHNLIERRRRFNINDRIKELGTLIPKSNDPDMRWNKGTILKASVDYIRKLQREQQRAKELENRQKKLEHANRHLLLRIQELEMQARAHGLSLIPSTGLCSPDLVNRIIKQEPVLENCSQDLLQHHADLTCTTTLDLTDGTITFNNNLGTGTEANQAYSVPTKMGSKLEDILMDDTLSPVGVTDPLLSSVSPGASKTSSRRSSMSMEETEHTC

[28] = tested on: INS1; assay: beta cell apoptosis inhibitors, cytokine rescue, dose response, luminescence, retest (AID 449756); format: functional, cell-based; conditions: Rattus norvegicus;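 note: cell death triggered by IL-1 beta plus TNF-alpha plus IFN-gamma mixture; protective hits raise ATP signal compared with cytokine alone wells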
[29] = cytotoxicity in HEK-293T cells, dose response, cytotoxicity control for TCR NF-kB inhibitor project, luminescence, T-cell screen hits (AID 489026); format: functional, cell-based;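 note: cells exposed to compound about 14 hours before the viability readout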
[30] = tested on: A-375; assay: MITF: Counter assay: A375 proliferation Measured in Cell-Based System Using Plate Reader - 2084-03_Inhibitor_Dose_DryPowder_Activity. [Related pubchem assays (depositor defined):AID488944]; format: functional; conditions: Homo sapiens

T3 sequence (Q9UBE0 whole entry): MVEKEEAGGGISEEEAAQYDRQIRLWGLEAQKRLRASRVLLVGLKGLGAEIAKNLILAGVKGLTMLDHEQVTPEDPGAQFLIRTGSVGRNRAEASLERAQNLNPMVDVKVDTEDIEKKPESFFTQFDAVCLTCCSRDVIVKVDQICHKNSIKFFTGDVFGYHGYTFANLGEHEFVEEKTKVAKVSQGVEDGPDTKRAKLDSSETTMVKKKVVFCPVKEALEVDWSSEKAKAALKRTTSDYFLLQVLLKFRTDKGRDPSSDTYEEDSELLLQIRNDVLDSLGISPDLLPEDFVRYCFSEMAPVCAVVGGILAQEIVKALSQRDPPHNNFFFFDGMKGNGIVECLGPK
T3 sequence (Q9UBT2 whole entry): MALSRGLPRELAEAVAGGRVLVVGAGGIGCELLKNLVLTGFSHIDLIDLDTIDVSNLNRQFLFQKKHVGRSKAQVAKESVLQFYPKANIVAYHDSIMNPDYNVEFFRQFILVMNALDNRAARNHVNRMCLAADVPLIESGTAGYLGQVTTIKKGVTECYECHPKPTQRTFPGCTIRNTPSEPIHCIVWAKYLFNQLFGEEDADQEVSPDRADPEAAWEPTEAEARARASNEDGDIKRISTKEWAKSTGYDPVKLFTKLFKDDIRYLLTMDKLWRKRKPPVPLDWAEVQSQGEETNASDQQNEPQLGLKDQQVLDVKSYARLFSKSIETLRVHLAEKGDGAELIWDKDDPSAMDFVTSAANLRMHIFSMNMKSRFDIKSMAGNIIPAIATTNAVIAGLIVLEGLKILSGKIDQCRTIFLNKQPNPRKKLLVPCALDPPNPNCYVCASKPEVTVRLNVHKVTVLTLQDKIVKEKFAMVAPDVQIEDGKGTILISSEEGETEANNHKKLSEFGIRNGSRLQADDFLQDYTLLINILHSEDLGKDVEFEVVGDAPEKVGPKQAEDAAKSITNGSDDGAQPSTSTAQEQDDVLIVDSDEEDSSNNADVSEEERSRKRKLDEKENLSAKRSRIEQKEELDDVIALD
72 kDa type IV collagenase, sequence (P08253 whole entry): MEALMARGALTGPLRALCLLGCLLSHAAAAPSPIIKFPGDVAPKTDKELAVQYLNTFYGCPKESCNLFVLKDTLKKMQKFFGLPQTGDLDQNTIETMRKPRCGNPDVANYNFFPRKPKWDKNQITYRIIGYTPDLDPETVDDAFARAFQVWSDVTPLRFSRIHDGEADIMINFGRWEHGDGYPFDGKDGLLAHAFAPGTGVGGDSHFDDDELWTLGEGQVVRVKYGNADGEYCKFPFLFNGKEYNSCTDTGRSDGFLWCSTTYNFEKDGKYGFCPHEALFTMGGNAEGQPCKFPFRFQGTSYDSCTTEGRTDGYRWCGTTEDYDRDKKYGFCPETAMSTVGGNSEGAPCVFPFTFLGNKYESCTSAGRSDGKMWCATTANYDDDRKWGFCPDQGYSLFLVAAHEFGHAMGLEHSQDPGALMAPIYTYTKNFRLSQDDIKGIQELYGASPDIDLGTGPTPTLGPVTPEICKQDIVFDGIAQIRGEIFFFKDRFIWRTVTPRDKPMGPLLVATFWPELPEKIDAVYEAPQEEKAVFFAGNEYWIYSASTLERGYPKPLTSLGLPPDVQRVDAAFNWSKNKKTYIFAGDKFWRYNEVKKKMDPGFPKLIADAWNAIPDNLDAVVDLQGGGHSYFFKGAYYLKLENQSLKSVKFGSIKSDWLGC
Phospholipase A2, sequence (P04054 whole entry): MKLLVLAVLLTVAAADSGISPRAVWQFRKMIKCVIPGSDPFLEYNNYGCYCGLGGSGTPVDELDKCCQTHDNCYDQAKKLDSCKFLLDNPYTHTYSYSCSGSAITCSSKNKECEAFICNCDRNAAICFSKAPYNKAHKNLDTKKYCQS
26S proteasome non-ATPase regulatory subunit 14, sequence (O00487 whole entry): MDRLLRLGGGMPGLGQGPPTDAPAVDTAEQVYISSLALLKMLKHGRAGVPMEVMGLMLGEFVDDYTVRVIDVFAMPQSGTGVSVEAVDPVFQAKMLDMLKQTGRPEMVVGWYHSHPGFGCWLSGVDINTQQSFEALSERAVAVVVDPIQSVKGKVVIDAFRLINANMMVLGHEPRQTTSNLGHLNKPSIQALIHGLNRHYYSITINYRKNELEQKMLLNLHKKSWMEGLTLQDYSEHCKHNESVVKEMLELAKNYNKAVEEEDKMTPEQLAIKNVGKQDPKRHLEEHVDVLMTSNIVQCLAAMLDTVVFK

Cc1nn(-c2ccccc2)nc1C(=O)Nc1nnc(C(F)(F)F)s1
IC50 [1]: 17.4 µM (active)

COc1cc2ncnc(NCCc3ccccc3)c2cc1OC
IC50 [2]: 19.3 µM (inactive)
IC50 [3]: > 20 µM (inactive)
IC50 [4]: > 20 µM (inactive)
EC50 [5]: 19 µM (active)

COc1cccc(-c2nc(SCC(=O)Nc3nc(-c4ccccc4)c(C)s3)[nH]c(=O)c2C#N)c1
IC50 [6]: 14.9 µM (active)
IC50 [7]: 15.2 µM (active)
IC50 [8]: 5.37 µM (active)
IC50 [9]: 15 µM (active)
IC50 [10]: 21.2 µM (active)

O=C(Nc1cccc2ccccc12)c1ccc([N+](=O)[O-])o1
CC50 [11]: 12.7 µM (active)
EC50 [12]: > 120 µM (not active)
IC50 [13]: 5.22 µM (active)
CC50 [14]: 6.37 µM (active)
CC50 [15]: 17.8 µM (active)
EC50 [16]: > 120 µM (not active)
CC50 [17]: 15.1 µM (active)
EC50 [18]: > 120 µM (not active)
EC50 [19]: 1.51 µM (active)
EC50 [20]: > 150 µM (inactive)

COc1cc(OC)c2ccc(=O)oc2c1C(CC(=O)N1CCCC(C)C1)c1ccc2c(c1)OCO2 (centres undefined)
IC50 [21]: 14.3 µM (active)

O=C(CSc1nc2c(sc3ccccc32)c(=O)n1CCO)NCc1ccco1
IC50 [21]: 8.39 µM (active)

O=C(N/N=C/c1ccccc1F)c1cc2c(ccc3ccccc32)o1
IC50 [21]: 4.45 µM (active)
IC50 [22]: 18.2 µM (active)
IC50 [23]: 77.5 µM (active)
IC50 [24]: > 100 µM (inactive)

Oc1c(Br)cc(Br)cc1/C=N/c1nc2c(s1)CCCC2
EC50 [25]: 7.68 µM (active)
IC50 [1]: 13.2 µM (active)
EC50 [26]: 7.39 µM (active)

O=C(O/N=C(/c1ccccc1)c1ccncc1)c1ccccc1[N+](=O)[O-]
IC50 [1]: 13.2 µM (active)

COc1ccc(C(=O)/C(C#N)=N/Nc2ccc([N+](=O)[O-])cc2)cc1
AC50 [27]: 8.26 µM (active)
AC50 [28]: 1.9 µM (active)
IC50 [29]: > 80 µM (inactive)
AC50 [30]: 28.8 µM (active)
